One compound from patent US10842749B2, “Compositions and methods of treating therapy resistant cancer and uses thereof” (priority 2012, dated 2020) can be followed below.

Series [1] deals with MDA-MB-231/MDR cells. Briefly: Cell viability of MDR1-transfected MDA-MB-231/MDR cells. It is filed as cell-based, human. As to conditions: cell viability 72 hours after treatment. Here is the method:
(§1) FIGS. 2A-2H show vesicular transport of pDox in tumor cells and effective killing of tumor cells carrying an overexpressed multidrug resistance gene mediated by pDox. […] The presence of doxorubicin (red) in subcellular organelle was visualized by fluorescence microscopy. Nuclei were stained blue with DAPI and late endosomes/lysosomes were stained green with LysoTracker. Nuclear accumulation could be detected as early as 15 minutes after treatment of cells with Dox, while co-localization of Dox with LysoTracker was apparent in pDox treated cells 15 minutes and 1 hour after treatment. […] The cells were sensitive to pDox, but resistant to treatment with free Dox. FIG. 2D depicts fluorescence images of subcellular organelles. Nuclei were stained in blue DAPI and lysosomes were stained in green with LysoTracker. Images of Dox, nuclei and lysosomes were merged to show subcellular localization of Dox at different time points.
Many breast cancer patients are resistant to chemotherapy due to drug efflux. About 25-50% of previously untreated breast cancers express the MDR1 gene encoding p-glycoprotein, one of the drug efflux pump proteins^17. Overexpression of MDR1 has also been attributed to acquired resistance to anthracyclines and cross-resistance to other chemotherapy drugs in the clinic^15. […]

The subject of series [2] is MDA-MB-231 cells. Briefly: Intracellular trafficking of Dox and pDox. Format: cell-based, human. The note with it: fluorescence microscopy. Here is the method: as §1, with “Images of Dox, nuclei and lysosomes were merged to show subcellular localization of Dox at different time points.” left out
Applicants conducted studies to compare cellular uptake and subcellular trafficking of free Dox and pDox nanoparticles in MDA-MB-231 cells. […] However, no nuclear accumulation was detected in the pDox-treated cells at the same time (FIG. 2A and FIG. 2D). The red fluorescence from pDox could be co-localized with the green LysoTracker-positive subcellular organelles beginning at 15 minutes, and reached a high level one hour after pDox treatment (FIG. 2A and FIG. 2D), indicating pDox entered tumor cells via vesicular transport. […]

Series [3] is described as follows: Tissue distribution of Dox by HPLC in MDA-MB-231 lung metastasis mice.
Protocol: They were sacrificed 1 hour, 1 day, or 7 days later. Dox concentration in major organs was analyzed by HPLC.
Quantitation of doxorubicin was performed using Daunorubicin (Dau, Sigma) as an internal standard^49. Briefly, tissues were homogenized in PBS (100 mg tissue/330 μL PBS), and then mixed with 10 μL Dau (50 μg/mL). A 4-fold volume of the extraction solution containing chloroform and methanol (3/1, v/v) was subsequently added. The mixture was vortexed for 1 minute, and centrifuged at 13,000 rpm for 10 minutes to separate the aqueous and organic phases. The organic phase was collected, and the solvent was evaporated at 25° C. under a flow of nitrogen. The extract was dissolved in 100 μL methanol, and a 10 μL aliquot was used for HPLC analysis.
Series [4] deals with MDA-MB-231 human breast cancer lung metastasis. Briefly: Murine model of MDA-MB-231 human breast cancer lung metastasis. It is filed as in vivo, nude mice. As to conditions: Dox 3 mg/kg weekly, 6 weeks. How it is done:
(§2) Applicants selected the murine model of MDA-MB-231 human breast cancer lung metastasis, widely used to study mechanism of pathology and for drug development^37-39, to evaluate therapeutic efficacy of porous silicon/pDox. […] Applicants treated the tumor-bearing mice with free pDox, porous silicon/pDox, and the clinically available drugs doxorubicin and Doxil, beginning one week after tumor inoculation and lasting for 6 weeks. Drugs were dosed biweekly at 6 mg/kg to mice in all treatment groups (10 mice per group) except free Dox.

For series [5], the system named is 4T1 lung metastasis. Briefly: 4T1 lung metastasis model, pilot study (two treatments). Format: in vivo, BALB/c mice. As to conditions: 6 mg/kg on day of surgery and 10 days later. The source says:
All mice were sacrificed three weeks after the first treatment, and lung tissues were examined for tumor metastasis. […] The arrows indicate tumor nodules in the lung (FIG. 5F-2).
Thus the 4T1 syngeneic tumor mice represent a second Triple Negative Breast Cancer (TNBC) tumor model in this study. When inoculated into the mammary gland fat pad of BALB/c mice, 4T1 tumor cells formed rapidly growing primary tumors. If left untreated, all of the mice would eventually develop lung metastasis from primary tumors. In a pilot study, surgical removal of primary tumors (about 400 mm^3 in size) was performed, and then PBS, Dox, pDox, or Porous silicon/pDox was administered once immediately after surgery and again 10 days post-surgery.

Series [6] has as its system 4T1 lung metastasis. In words: 4T1 lung metastasis model, follow-up study (weekly x 4 after surgery).
Protocol: 4T1 tumor cells were inoculated in the fourth mammary gland fat pad of female BALB/c mice. The primary tumors were surgically removed when they reached 250-300 mm3, and mice (n=10 mice/group) were treated weekly with 6 mg/kg Dox, Doxil, pDox, or Porous silicon/pDox for four consecutive weeks. Tumor growth was monitored by tracking bioluminescent intensity with the Xenogene IVIS-200 imaging system.
To generate the mouse 4T1 lung metastasis model, BALB/c mice were inoculated with 4T1 cells (5×10^4 cells/mouse) into the mammary gland fat pad. […] In the follow-up study, 4T1 cells that were engineered to express luciferase and GFP, and were inoculated into the mammary gland fat pads of female BALB/c mice. The primary tumors were surgically removed once they reached 250-300 mm^3. Mice were treated with 6 mg/kg of the therapeutic agents weekly for 4 weeks, and subsequently maintained to assess survival benefit from treatments.
To evaluate drug dosing requirements and sustainability after administration, Applicants applied a different drug regimen to BALB/c mice bearing 4T1 tumors. Applicants performed complete surgical removal of the primary tumors once they reached 250-300 mm3, and confirmed that the extraction was thorough by the lack of bioluminescence from the luciferase- and GFP-bearing mammary gland fat pads (FIG. 5A). […]
The nature of series [7]: Heart H&E staining and body weight in treated tumor mice. How it is done:
FIGS. 4A-4C show H&E staining of heart tissues in mice treated with 6 mg/kg free Dox, Doxil, or porous silicon/pDox for 6 weeks.
as §2

As to `COc1cccc2c1C(=O)c1c(O)c3c(c(O)c1C2=O)C[C@@](O)(C(=O)CO)C[C@@H]3O[C@H]1C[C@H](N)[C@H](O)[C@H](C)O1` [Dox, doxorubicin], the “sensitivity of MDR1-expressing cells to treatment” value in series [1] is “resistant”. In addition, the “time of nuclear accumulation after addition of drug” value in series [2] turned out to be 15 min. For the same compound, the “Dox concentration in the heart” value in series [3] (6 mg/kg i.v., one hour after dosing) is listed as “over 10 μg/g organ”. Moreover, in series [3] (1 hour post-dosing), the “plasma Dox” value was “barely detectable”. Further, the “extension of median survival over control groups” value in series [4] (pDox 6 mg/kg biweekly) was determined as 2 weeks. In series [4] (Doxil, pDox, MSV/pDox 6 mg/kg biweekly, tail vein), the Median survival is 98.5 days. In addition, the “lung tumor nodules / metastasis” value in series [5] is given as “multiple, large tumor nodules in the lung”. In series [6] (6 mg/kg weekly for 4 weeks), the “extension of median survival over the PBS control” value came out at 13 days. In addition, the “Median survival after tumor inoculation” value in series [6] (6 mg/kg weekly for 4 weeks after surgical removal of primary tumor) turned out to be 62 days. In addition, the “heart histology (H&E)” value in series [7] (6 mg/kg biweekly) was “deformation of myocardial fibers”. Further, the body weight change entry in series [7] (Dox 3 mg/kg weekly, Doxil, porous silicon/pDox 6 mg/kg biweekly) is listed as “initial drop in body weight but recovered shortly”.
